Measured values reported in US6864219B2, “Substituted aryl ketones” (Bayer Aktiengesellschaft, priority 2000, dated 2005).
Like-named read-outs stand apart in the source and are kept apart here.

How the values were obtained:
[1] = log P determination by HPLC on reversed-phase column (C 18), EEC Directive 79/831 V.A8; format: physicochemical; conditions: for logP (Physical data, Table 1): labelled a): acidic range, 0.1% aqueous phosphoric acid/acetonitrile gradient, 43° C.
Method: The log P values given in Table 1 were determined in accordance with EEC Directive 79/831 V.A8 by HPLC (High Performance Liquid Chromatography) on a reversed-phase column (C 18). Temperature: 43° C.
(a) Mobile phases for the determination in the acidic range: 0.1% aqueous phosphoric acid, acetonitrile; linear gradient of 10% acetonitrile to 90% acetonitrile—the corresponding data in Table 1 are labelled ^a).
(b) Mobile phases for the determination in the neutral range: 0.01 molar aqueous phosphate buffer solution, acetonitrile, linear gradient from 10% acetonitrile to 90% acetonitrile—the corresponding data in Table 1 are labelled ^b).

weeds [2] = test: Post-emergence test (Example B), activity against weeds; format: in vivo; conditions: test plants 5-15 cm sprayed; damage rated after three weeks
Method: (§1) To produce a suitable preparation of active compound, 1 part by weight of active compound is mixed with the stated amount of solvent, the stated amount of emulsifier is added and the concentrate is diluted with water to the desired concentration.
Test plants with a height of 5-15 cm are sprayed with the preparation of active compound such that the particular amounts of active compound desired are applied per unit area. The concentration of the spray liquor is chosen so that the particular amounts of active compound desired are applied in 1000 l of water/ha.
After three weeks, the degree of damage to the plants is rated in % damage in comparison to the development of the untreated control.
The figures denote: • 0%=no effect (like untreated control) • 100%=total destruction

weeds [3] = test: Pre-emergence test (Example A), activity against weeds; format: in vivo; conditions: soil sprayed 24 hours after sowing; damage rated after three weeks
Method: as §1
Seeds of the test plants are sown in normal soil. After 24 hours, the soil is sprayed with the preparation of active compound such that the particular amount of active compound desired is applied per unit area. The concentration of active compound in the spray liquor is chosen such that the particular amount of active compound desired is applied in 1000 liters of water per hectare.
After three weeks, the degree of damage to the plants is rated in % damage in comparison to the development of the untreated control. The figures denote: • 0%=no effect (like untreated control) • 100%=total destruction

[4] = reversed-phase HPLC column (C 18), mobile-phase label not given, read-out: Log P (preparation examples)
[5] = reversed-phase HPLC column (C 18), labelled a): acidic range; read-out: logP)
[6] = reversed-phase HPLC column (C 18), labelled a): acidic range, starting materials of formula (II)/(IIA), read-out: logP (Physical data, Table 2)

## Cc1nn(CCOc2c(Cl)ccc(C(=O)Cl)c2Cl)c(=O)n1C [II-5, 2,4-dichloro-3-[2-(3′,4′-dimethyl-1′,2′,4′-1H-triazolin-5′-on-1′-yl)-ethoxy]-2-benzoyl chloride]
[1]; [4]
  chromatographic logP: 1.24

## CCOC(=O)c1ccc(Cl)c(OCCn2nc(SC)n(C)c2=O)c1Cl [II-35, ethyl 2,4-dichloro-3-[2-(3-methylthio-4-methyl-5-oxo-1,2,4-triazolin-1-yl)-ethoxy]-benzoate]
[1]; [5]
  chromatographic logP: 2.66
[1]; [6]
  chromatographic logP: 2.66

## COC(=O)c1ccc(Cl)c(OCCCl)c1C [methyl 4-chloro-3-(2-chloro-ethoxy)-2-methyl-benzoate]
[1]; [4]
  chromatographic logP: 3.52

## COC(=O)c1ccc(Cl)c(O)c1C [methyl 4-chloro-3-hydroxy-2-methyl-benzoate]
[1]; [4]
  chromatographic logP: 2.14

## CSc1ccc(C(=O)C2=C(O)CCCC2=O)c(Cl)c1OCCn1nc(SC)n(C)c1=O [Example 34]
[1]
  logP (Physical data, Table 1): logP = 2.36^a)

## CSc1ccc(C(=O)C2=C(O)CCCC2=O)c(Cl)c1OC[C@@H]1CCC(=O)N1 [Example 24]
[1]
  logP (Physical data, Table 1): (S enantiomer) logP = 1.98^a)

## CCn1ncc(C(=O)c2ccc(Cl)c(OC[C@@H]3CCC(=O)N3)c2C)c1O [Example 35]
[1]
  logP (Physical data, Table 1): (S enantiomer) [α]D^20 = +2.3 logP = 1.67^a)

## CCn1ncc(C(=O)c2ccc(Cl)c(OC[C@@H]3CCC(=O)N3)c2Cl)c1O [Example 48]
[1]
  logP (Physical data, Table 1): (S enantiomer) logP = 1.51^a)

## CCOC(=O)c1ccc(Cl)c(OCCBr)c1Cl [ethyl 2,4-dichloro-3-(2-bromo-ethoxy)-benzoate]
[1]; [5]
  chromatographic logP: 3.98

## CCn1ncc(C(=O)c2ccc(Cl)c(OCCn3nc(OC)n(CC)c3=O)c2C)c1O [Example 29]
[1]
  logP (Physical data, Table 1): logP = 2.12^a)

## CSc1nn(COc2c(Cl)ccc(C(=O)C3=C(O)CCCC3=O)c2Cl)c(=O)n1C [Example 13]
Weeds [2]
  activity against weeds, post-emergence: strong activity
[1]
  logP (Physical data, Table 1): logP = 2.44^a)

## CCOc1nn(COc2c(Cl)ccc(C(=O)O)c2Cl)c(=O)n1C [II-8, 3-(3′-ethoxy-4′-methyl-1′,2′,4′-1H-triazolin-5′-on-1′-yl)-methoxy-2,4-dichloro-benzoic acid]
[1]; [4]
  chromatographic logP: 1.74

## CCOC(=O)c1ccc(Cl)c(OCn2nc(OCC)n(C)c2=O)c1Cl [II-6, ethyl 3-(3′-ethoxy-4′-methyl-1′,2′,4′-1H-triazolin-5′-on-1′-yl)-methoxy-2,4-dichloro-benzoate]
[1]; [4]
  chromatographic logP: 2.77

## CCn1ncc(C(=O)c2ccc(Cl)c(OCCn3nc(C)n(C)c3=O)c2Cl)c1O [Example 5]
Weeds [3]
  activity against weeds, pre-emergence: strong activity
Weeds [2]
  activity against weeds, post-emergence: strong activity
[1]
  logP (Physical data, Table 1): logP = 1.52^a)

## CCn1ncc(C(=O)c2ccc(Cl)c(OCCn3nc(C)n(C)c3=O)c2C)c1O [Example 7]
Weeds [3]
  activity against weeds, pre-emergence: strong activity
Weeds [2]
  activity against weeds, post-emergence: strong activity
[1]
  logP (Physical data, Table 1): logP = 1.68^a)

## CCn1ncc(C(=O)c2ccc(Cl)c(OCCn3nc(COC)n(C)c3=O)c2Cl)c1O [Example 18]
[1]
  logP (Physical data, Table 1): logP = 1.62^a)

## Cc1c(C(=O)O)ccc(Cl)c1OCCn1nc(C)n(C)c1=O [II-4, 4-chloro-3-[2-(3′,4′-dimethyl-1′,2′,4′-1H-triazolin-5′-on-1′-yl)-ethoxy]-2-methyl-benzoic acid]
[1]; [4]
  chromatographic logP: 1.37

## CCn1ncc(C(=O)c2ccc(SC)c(OC[C@@H]3CCC(=O)N3)c2Cl)c1O [Example 20]
[1]
  logP (Physical data, Table 1): (S enantiomer) logP = 1.60^a)

## CCn1ncc(C(=O)c2ccc(Cl)c(OCCn3nc(SC)n(C)c3=O)c2C)c1O [Example 27]
[1]
  logP (Physical data, Table 1): logP = 2.11^a)

## CCn1ncc(C(=O)c2ccc(Cl)c(OCCn3nc(C)n(C)c3=O)c2C)c1OCc1ccc(Br)cc1 [Example 12]
[1]
  logP (Physical data, Table 1): logP = 2.07^a)

## CCn1ncc(C(=O)c2ccc(SC)c(OCCn3nc(SC)n(C)c3=O)c2Cl)c1O [Example 33]
[1]
  logP (Physical data, Table 1): logP = 1.97^a)

## Cc1c(C(=O)C2=C(O)CCCC2=O)ccc(Cl)c1OC[C@@H]1CCC(=O)N1 [Example 36]
[1]
  logP (Physical data, Table 1): (S enantiomer) logP = 1.94^a)

## CCn1ncc(C(=O)c2ccc(Cl)c(OCCn3nc(SC)n(C)c3=O)c2Cl)c1O [Example 16]
[1]
  logP (Physical data, Table 1): logP = 1.92^a)

## CCOC(=O)c1ccc(Cl)c(OC[C@@H]2CCC(=O)N2)c1Cl [II-61, ethyl (S)-2,4-dichloro-3-[(2-oxo-pyrrolidin-5-yl)-methoxy]-benzoate]
[1]; [5]
  chromatographic logP: 2.14
[1]; [6]
  chromatographic logP: 2.15

## CCn1c(OC)nn(CCOc2c(Cl)ccc(C(=O)C3=C(O)CCCC3=O)c2C)c1=O [Example 26]
[1]
  logP (Physical data, Table 1): logP = 2.15^a)

## CSc1nn(CCOc2c(Cl)ccc(C(=O)C3=C(O)CCCC3=O)c2Cl)c(=O)n1C [Example 21]
[1]
  logP (Physical data, Table 1): logP = 2.39^a)

## CCn1ncc(C(=O)c2ccc(SC)c(OC[C@@H]3CCC(=O)N3C)c2Cl)c1O [Example 45]
[1]
  logP (Physical data, Table 1): (S enantiomer) logP = 1.68^a)

## O=C1CC[C@@H](COc2c(Br)ccc(C(=O)C3=C(O)CCCC3=O)c2Br)N1 [Example 61]
[1]
  logP (Physical data, Table 1): (S enantiomer) logP = 2.02^a)

## COCc1nn(CCOc2c(SC)ccc(C(=O)C3=C(O)CCCC3=O)c2Cl)c(=O)n1C [Example 44]
[1]
  logP (Physical data, Table 1): logP = 2.05^a)

## COC(=O)c1ccc(Cl)c(OCCn2nc(C)n(C)c2=O)c1C [II-1, methyl 4-chloro-3-[2-(3′,4′-dimethyl-1′,2′,4′-1H-triazolin-5′-on-1′-yl)-ethoxy]-2-methyl-benzoate]
[1]; [4]
  chromatographic logP: 1.94

## CCn1ncc(C(=O)c2ccc(Cl)c(OCCn3nc(OC)n(C)c3=O)c2Cl)c1O [Example 15]
[1]
  logP (Physical data, Table 1): logP = 1.69^a)

## CCn1c(OC)nn(CCOc2c(Cl)ccc(C(=O)C3=C(O)CCCC3=O)c2C)c1=O [Example 31]
[1]
  logP (Physical data, Table 1): logP = 2.38^a)

## CCn1ncc(C(=O)c2ccc(Br)c(OC[C@@H]3CCC(=O)N3)c2Br)c1O [Example 60]
[1]
  logP (Physical data, Table 1): (S enantiomer) logP = 1.56^a)

## CCn1ncc(C(=O)c2ccc(Cl)c(OCCn3nc(OC)n(CC)c3=O)c2Cl)c1O [Example 17]
[1]
  logP (Physical data, Table 1): logP = 1.93^a)

## CCn1ncc(C(=O)c2ccc(Cl)c(OCCn3nc(COC)n(C)c3=O)c2C)c1O [Example 30]
[1]
  logP (Physical data, Table 1): logP = 1.78^a)

## CCn1c(OC)nn(CCOc2c(Cl)ccc(C(=O)C3=C(O)CCCC3=O)c2Cl)c1=O [Example 22]
[1]
  logP (Physical data, Table 1): logP = 2.16^a)

## CCn1ncc(C(=O)c2ccc(SC)c(OCCn3nc(C)n(C)c3=O)c2Cl)c1OCc1ccc(Br)cc1 [Example 14]
[1]
  logP (Physical data, Table 1): logP = 2.05^a)

## Cc1c(C(=O)C2=C(O)CCCC2=O)ccc(Cl)c1OC[C@@H]1CCC(=O)N1C [Example 38]
[1]
  logP (Physical data, Table 1): (S enantiomer) logP = 2.10^a)

## O=C1CC[C@@H](COc2c(Cl)ccc(C(=O)C3=C(O)CCCC3=O)c2Cl)N1 [Example 47]
[1]
  logP (Physical data, Table 1): (S enantiomer) logP = 1.95^a)

## CSc1nn(CCOc2c(Cl)ccc(C(=O)C3=C(O)CCCC3=O)c2C)c(=O)n1C [Example 28]
[1]
  logP (Physical data, Table 1): logP = 2.38^a)

## CCn1ncc(C(=O)c2ccc(Cl)c(OC[C@@H]3CCC(=O)N3C)c2C)c1O [Example 37]
[1]
  logP (Physical data, Table 1): (S enantiomer) logP = 1.85^a)

## COCc1nn(CCOc2c(Cl)ccc(C(=O)C3=C(O)CCCC3=O)c2Cl)c(=O)n1C [Example 19]
[1]
  logP (Physical data, Table 1): logP = 2.06^a)

## CSc1ccc(C(=O)C2=C(O)CCCC2=O)c(Cl)c1OC[C@@H]1CCC(=O)N1C [Example 46]
[1]
  logP (Physical data, Table 1): (S enantiomer) logP = 2.13^a)

## CCOC(=O)c1ccc(S(C)(=O)=O)c(OCCn2nc(C)n(C)c2=O)c1C [II-3, ethyl 3-[2-(3′,4′-dimethyl-1′,2′,4′-1H-triazolin-5′-on-1′-yl)-ethoxy]-2-methyl-4-methylsulphonyl-benzoate]
[1]; [4]
  chromatographic logP: 1.76

## CN1C(=O)CC[C@H]1COc1c(Cl)ccc(C(=O)C2=C(O)CCCC2=O)c1Cl [Example 39]
[1]
  logP (Physical data, Table 1): (S enantiomer) logP = 2.12^a)

## COC(=O)c1ccc(SC)c(OCCn2nc(C)n(C)c2=O)c1C [II-2, methyl 3-[2-(3′,4′-dimethyl-1′,2′,4′-1H-triazolin-5′-on-1′-yl)-ethoxy]-2-methyl-4-methylthio-benzoate]
[1]; [4]
  chromatographic logP: 1.89

## CCn1ncc(C(=O)c2ccc(Cl)c(OC[C@@H]3CCC(=O)N3C)c2Cl)c1O [Example 40]
[1]
  logP (Physical data, Table 1): (S enantiomer) logP = 1.67^a)

## COCc1nn(CCOc2c(Cl)ccc(C(=O)C3=C(O)CCCC3=O)c2C)c(=O)n1C [Example 32]
[1]
  logP (Physical data, Table 1): logP = 2.04^a)

## CCn1ncc(C(=O)c2ccc(Cl)c(OCCn3nc(OC)n(CC)c3=O)c2C)c1O [Example 25]
[1]
  logP (Physical data, Table 1): logP = 1.88^a)
